Test results taken from BindingDB's records for patent US11447487 (Bristol-Myers Squibb Company, 2022).

Molecular target: Rho-associated protein kinase 2 (Homo sapiens, UniProt O75116)
Test: In Vitro Assays
Procedure: The effectiveness of compounds of the present invention as ROCK inhibitors can be determined in a 30 μL assay containing 20 mM HEPES, pH 7.5, 20 mM MgCl2, 0.015% Brij-35, 4 mM DTT, 5 μM ATP and 1.5 μM peptide substrate (FITC-AHA-AKRRRLSSLRA-OH) (SEQ ID No. 1). Compounds were dissolved in DMSO so that the final concentration of DMSO was <2%, and the reaction was initiated with Rho kinase variants. After incubation, the reaction was terminated by the addition of EDTA and the phosphorylated and non-phosphorylated peptides separated using a LABCHIP 3000 Reader (Caliper Life Sciences). […] Compounds were tested in dose-response format, and the inhibition of kinase activity was calculated at each concentration of compound. The inhibition data were fit using a curve-fitting program to determine the IC50; i.e., the concentration of compound required to inhibit 50% of kinase activity.

Sequence of Rho-associated protein kinase 2 (O75116 whole entry): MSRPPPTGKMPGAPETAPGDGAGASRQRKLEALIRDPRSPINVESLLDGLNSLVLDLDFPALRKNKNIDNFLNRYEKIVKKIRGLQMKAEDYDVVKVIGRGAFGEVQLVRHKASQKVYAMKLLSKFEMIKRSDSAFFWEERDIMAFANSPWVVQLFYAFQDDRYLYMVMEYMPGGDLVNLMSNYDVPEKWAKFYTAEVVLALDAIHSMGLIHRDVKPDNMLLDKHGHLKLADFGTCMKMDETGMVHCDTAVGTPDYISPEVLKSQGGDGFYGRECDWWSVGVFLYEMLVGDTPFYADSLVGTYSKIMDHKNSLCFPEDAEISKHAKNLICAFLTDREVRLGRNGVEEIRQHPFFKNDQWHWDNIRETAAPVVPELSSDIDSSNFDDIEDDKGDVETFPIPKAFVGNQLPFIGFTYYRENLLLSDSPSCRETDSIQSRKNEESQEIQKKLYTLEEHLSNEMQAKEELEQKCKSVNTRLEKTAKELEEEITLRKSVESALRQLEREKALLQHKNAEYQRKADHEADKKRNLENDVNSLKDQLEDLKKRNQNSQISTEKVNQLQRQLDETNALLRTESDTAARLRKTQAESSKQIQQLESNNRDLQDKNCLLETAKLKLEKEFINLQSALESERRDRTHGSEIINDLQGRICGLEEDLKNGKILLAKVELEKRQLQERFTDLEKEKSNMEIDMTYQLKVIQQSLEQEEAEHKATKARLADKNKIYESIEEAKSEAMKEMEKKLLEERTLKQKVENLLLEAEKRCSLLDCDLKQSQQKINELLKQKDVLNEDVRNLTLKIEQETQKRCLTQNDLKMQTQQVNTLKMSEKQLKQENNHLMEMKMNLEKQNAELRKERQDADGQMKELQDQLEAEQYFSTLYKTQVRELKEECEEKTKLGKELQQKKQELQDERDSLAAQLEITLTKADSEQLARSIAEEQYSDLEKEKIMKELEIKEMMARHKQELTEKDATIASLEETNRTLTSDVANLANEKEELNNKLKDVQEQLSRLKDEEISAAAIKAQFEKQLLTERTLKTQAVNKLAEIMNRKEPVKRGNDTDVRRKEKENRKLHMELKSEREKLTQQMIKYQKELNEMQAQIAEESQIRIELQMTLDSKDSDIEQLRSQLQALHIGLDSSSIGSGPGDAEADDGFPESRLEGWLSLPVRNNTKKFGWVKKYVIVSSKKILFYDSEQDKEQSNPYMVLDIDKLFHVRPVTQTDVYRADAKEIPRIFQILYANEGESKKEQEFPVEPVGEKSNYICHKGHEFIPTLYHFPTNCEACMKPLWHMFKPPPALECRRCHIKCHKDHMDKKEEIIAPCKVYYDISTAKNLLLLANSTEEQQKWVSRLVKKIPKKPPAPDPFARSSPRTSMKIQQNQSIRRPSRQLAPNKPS

IC50 [nM] | Compound
13 | NC(=O)c1cccnc1O[C@H]1CC2(C1)C[C@H](N1C(=O)NC(CCC3CCCCC3)C1=O)C2 (stereo partly drawn) [US11447487, Example 4]
456 | NC(=O)c1cccnc1O[C@H]1CC2(C1)C[C@H](N1C(=O)CC(Cc3ccccc3)NC1=O)C2 (stereo partly drawn) [US11447487, Example 76]
6 | NC(=O)c1cccnc1O[C@H]1CC2(C1)C[C@H](N1C(=O)CN(c3ccc(OC(F)(F)F)cc3)C1=O)C2 (stereo partly drawn) [US11447487, Example 86]
